The values below are quoted from earlier work in US20110312981A1, “PREDICTIVE MARKER FOR EGFR INHIBITOR TREATMENT” (priority 2007, published 2011).

Data set [1] concerns NSCLC patients for whom standard therapy for advanced disease has failed. The note with it: single agent, versus placebo, BR.21.
For data set [2] the following is noted: patients with cancer receiving the 150 mg/day dose.
Another data set deals with NSCLC. Particulars: second line therapy of NSCLC.
Another data set deals with patients with NSCLC. The note with it: second line after cisplatin-based first-line regimens failed; ECOG 0, 1 or 2; versus best supportive care.

On to `C#Cc1cccc(Nc2ncnc3cc(OCCOC)c(OCCOC)cc23)c1` [Tarceva, erlotinib], for which the survival entry in data set [1] is “significantly prolongs and improves the survival”. In data set [2], the “drug levels in plasma” value was over 500 ng/mL.

Regarding `Nc1nc2[nH]cc(CCc3ccc(C(=O)N[C@@H](CCC(=O)O)C(=O)O)cc3)c2c(=O)[nH]1` [pemetrexed], in the data set on NSCLC, the “efficacy compared with docetaxel” value is recorded as “clinically equivalent efficacy” and the “side effects compared with docetaxel” value is given as “significantly fewer side effects”.

For `CC(=O)O[C@@]12CO[C@@H]1C[C@H](O)[C@@]1(C)C(=O)[C@H](O)C3=C(C)[C@@H](OC(=O)[C@H](O)[C@@H](NC(=O)OC(C)(C)C)c4ccccc4)C[C@@](O)([C@@H](OC(=O)c4ccccc4)[C@H]21)C3(C)C` [docetaxel], the survival entry in the data set with patients with NSCLC is listed as “improved survival”.
